Data set [1] can be described thus: Pharmacokinetic (PK) determination after i.v. or s.c. administration to rats. It counts as in vivo, Sprague Dawley rats. As to conditions: Rat PK; for half-life / Cmax / Tmax / bioavailability: plasma; for half-life: read-out: T½ (converted); for Cmax / Tmax: sc, 3 mg/kg s.c.; for bioavailability: subcutaneous, 3 mg/kg s.c. vs 1 mg/kg i.v., dose-corrected AUC ratio. As to the method:
Prior to the testing of a peptide batch, its purity (HPLC-UV) was determined. Dose was corrected for presence of salts, solvent and purity.
Sprague Dawley rats were dosed with study peptide at a dose of 1 mg/kg intravenously (i.v.) or 3 mg/kg subcutaneously (s.c.) as a solution in PBS (0.2 mg/ml and 0.6 mg/ml respectively).
Plasma samples were analyzed after protein precipitation via liquid chromatography mass spectrometry (LC/MS).
PK parameters and half-life were calculated using Phoenix 64 (WinNonlin 6.4)-Pharsight (Certara™) (non-compartment model). Values below the limit of quantification (BLQ) were replaced by zero for subsequent calculations and PK analysis.
T½: in-vivo half life, time required for test compound plasma concentration to be divided by two during the PK experiment.
C0: Extrapolated test compound plasma concentration at t=0 time point (i.v. route).
Cmax: maximal test compound plasma concentration at the indicated time point (s.c. route).
Tmax: Time point where Cmax is attained.
F %: s.c. vs i.v. bioavailability, dose-corrected area under curve (AUC) s.c. route divided by AUC i.v.

A further data set has as its target T1, RXFP1 (Homo sapiens, UniProt Q9HBX9).
T1 construct: OVCAR5 cells expressing endogenous RXFP1; endogenous in cells; host or cells: OVCAR5 cells
T1 sequence (Q9HBX9 1-757): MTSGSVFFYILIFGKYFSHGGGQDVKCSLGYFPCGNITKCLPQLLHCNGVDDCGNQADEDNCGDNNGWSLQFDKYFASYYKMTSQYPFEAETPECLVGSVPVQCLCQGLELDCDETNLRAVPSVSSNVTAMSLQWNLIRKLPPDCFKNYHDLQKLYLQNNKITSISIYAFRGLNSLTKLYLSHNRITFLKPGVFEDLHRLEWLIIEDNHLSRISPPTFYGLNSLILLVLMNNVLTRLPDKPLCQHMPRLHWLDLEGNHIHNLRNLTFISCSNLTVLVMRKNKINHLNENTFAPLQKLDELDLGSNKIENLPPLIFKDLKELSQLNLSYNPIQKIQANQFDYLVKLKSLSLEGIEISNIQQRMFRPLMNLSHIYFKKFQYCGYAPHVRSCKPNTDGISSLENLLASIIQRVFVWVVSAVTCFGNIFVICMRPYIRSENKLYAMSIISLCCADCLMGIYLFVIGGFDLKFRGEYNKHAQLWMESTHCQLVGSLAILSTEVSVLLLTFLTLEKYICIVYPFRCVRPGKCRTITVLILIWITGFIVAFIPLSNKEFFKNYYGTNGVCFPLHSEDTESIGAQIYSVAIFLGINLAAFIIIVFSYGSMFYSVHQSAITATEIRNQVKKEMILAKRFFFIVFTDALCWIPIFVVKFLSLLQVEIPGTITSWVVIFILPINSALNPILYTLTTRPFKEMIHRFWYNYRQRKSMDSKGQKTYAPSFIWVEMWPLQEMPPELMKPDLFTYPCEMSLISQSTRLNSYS
Briefly: OVCAR5 cAMP assay (HTRF), RXFP1 agonist activity. It counts as cell-based. As to conditions: for EC50: OVCAR5 cells, cAMP HTRF, read-out: EC50 (nM), OVCAR 5 cells (cAMP); for Emax: OVCAR-5, maximal cAMP relative to H2-relaxin maximum (100%), read-out: EMax, OVCAR 5 cells (cAMP). A digest of the protocol:
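OVCAR5 cells (endogenous RXFP1) pretreated 40 min at 37° C with 1 mM IBMX, then exposed to peptides in serum-free medium for 30 min at 37° C. Lysate cAMP read by HTRF; EC50 from variable-slope sigmoidal fit; Emax as % of H2-relaxin maximal cAMP in same run.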

The mark [2] stands for this setting: Sprague Dawley, iv, 1 mg/kg i.v., extrapolated plasma concentration at t=0, read-out: C0.
Where [3] appears, read: Sprague Dawley, iv, 1 mg/kg i.v.

What is called EC50 is the concentration that produces a half-maximal response. Broadly, the Emax is the greatest response seen or fitted, relative to the assay's reference. For orientation: Cmax means the highest concentration seen after dosing. The Tmax is the time from dosing to the highest level. As usually defined, the bioavailability is the share of a dose that reaches the circulation, judged against a reference dose that is usually intravenous.

Where two headings read alike, the source gives them in different places. *1 amine or outer side, *2 acyl side, *3 side chain or, on linkers, in order; H or OH if unused. Where a SMILES comes first, the peptide text is derived from it. Side-chain parts run from the residue outwards. [ ]: non-standard residue; d: D form. The star is where a group is joined. PEG28 = NCCOCCOCCOCCOCCOCCOCCOCCOCCOCCOCCOCCOCCOCCOCCOCCOCCOCCOCCOCCOCCOCCOCCOCCOCCOCCOCCOCCOCCC(=O)O; PEG12 = NCCOCCOCCOCCOCCOCCOCCOCCOCCOCCOCCOCCOCCC(=O)O; αMeW = C[C@](N)(Cc1c[nH]c2ccccc12)C(=O)O; γGlu = O=C(O)[C@H](CCC(=O)[*:2])N[*:1]; Stearoyl = CCCCCCCCCCCCCCCCCC(=O)*; Palmitoyl = CCCCCCCCCCCCCCCC(=O)*; αMeK = C[C@](N)(CCCCN)C(=O)O; Nle = CCCC[C@H](N)C(=O)O; AEEA = NCCOCCOCC(=O)O; Aib = CC(C)(N)C(=O)O

Regarding “H2-Relaxin: 6-kDa peptidic hormone of 53 amino acids; chain A (SEQ ID NO: 194) and chain B (SEQ ID NO: 195) cross-linked by disulfide bonds”, the “T½ (in-vivo half life)” value in data set [1] (1 mg/kg i.v.) was 0.46 h. Also, the C0 in data set [1] (1 mg/kg i.v., read-out: C0 (extrapolated plasma concentration at t=0)) is 870 nM.

On to `CCCCCCCCCCCCCCCCCC(=O)N[C@@H](CCC(=O)N[C@@H](CCC(=O)N[C@@H](CCC(=O)N[C@@H](CCC(=O)NCCCC[C@H](NC(=O)COCCOCCNC(=O)COCCOCCNC(=O)COCCOCCNC(=O)[C@H](CCCCNC(C)=O)NC(=O)[C@H](CCCCN)NC(=O)[C@H](CCCNC(=N)N)NC(=O)[C@](C)(CCCCN)NC(=O)[C@H](CO)NC(=O)[C@H](Cc1c[nH]c2ccccc12)NC(=O)[C@@H](NC(=O)[C@H](CO)NC(=O)[C@H](CCCC)NC(=O)CNC(=O)[C@H](CCC(=O)O)NC(=O)C(C)(C)NC(=O)C(C)(C)NC(=O)[C@@H](NC(=O)[C@H](CCCCNC(C)=O)NC(=O)[C@H](C)NC(=O)[C@H](CCCNC(=N)N)NC(=O)[C@@H](NC(=O)[C@H](CCCCN)NC(=O)[C@H](CCC(=O)O)NC(=O)[C@H](CCCNC(=N)N)NC(=O)CNC(=O)[C@H](CCC(=O)O)NC(=O)[C@H](CC(C)C)NC(C)=O)C(C)C)[C@@H](C)CC)[C@@H](C)O)C(N)=O)C(=O)O)C(=O)O)C(=O)O)C(=O)O` [compound 16] (Ac-LEGREKVRAK(Ac)I[Aib][Aib]EG[Nle]STWS[αMeK]RKK(Ac)[AEEA][AEEA][AEEA]K([γGlu-γGlu-γGlu-γGlu-Stearoyl])-NH2), for which, on RXFP1, the EC50 amounted to 0.02 nM and the Emax worked out at 87%. In addition, the C0 in data set [1] (setting [2]) was 2650 nM. In addition, the half-life in data set [1] (setting [3]) is 3.38 h. For the same compound, in data set [1] (Sprague Dawley), the Cmax turned out to be 1880 nM, the Tmax came to 8 h and the bioavailability worked out at 53%.

As for `CCCCCCCCCCCCCCCC(=O)N[C@@H](CCC(=O)N[C@@H](CCC(=O)N[C@@H](CCC(=O)NCCCC[C@H](NC(=O)CCOCCOCCOCCOCCOCCOCCOCCOCCOCCOCCOCCOCCNC(=O)[C@H](CCCCNC(C)=O)NC(=O)[C@H](CCCCN)NC(=O)[C@H](CCCNC(=N)N)NC(=O)C(C)(C)NC(=O)[C@H](CO)NC(=O)[C@H](Cc1c[nH]c2ccccc12)NC(=O)[C@@H](NC(=O)[C@H](CO)NC(=O)[C@H](CCCC)NC(=O)CNC(=O)[C@H](CCC(=O)O)NC(=O)C(C)(C)NC(=O)C(C)(C)NC(=O)[C@@H](NC(=O)[C@H](CCCCNC(C)=O)NC(=O)C(C)(C)NC(=O)[C@H](CCCNC(=N)N)NC(=O)[C@@H](NC(=O)[C@H](CCCCN)NC(=O)[C@H](CCC(=O)O)NC(=O)[C@H](CCCNC(=N)N)NC(=O)CNC(=O)[C@H](CCC(=O)O)NC(=O)[C@H](CC(C)C)NC(C)=O)C(C)C)[C@@H](C)CC)[C@@H](C)O)C(N)=O)C(=O)O)C(=O)O)C(=O)O` [compound 27] (Ac-LEGREKVR[Aib]K(Ac)I[Aib][Aib]EG[Nle]STWS[Aib]RKK(Ac)[PEG12]K([γGlu-γGlu-γGlu-Palmitoyl])-NH2), on RXFP1, the concentration for a half-maximal effect (EC50) is 0.3 nM and the Emax came out at 86%. For the same compound, in data set [1] (1 mg/kg i.v.), the “T½” value was determined as 6.90 h. Also, the C0 in data set [1] (setting [2]) is 3200 nM. Further, in data set [1] (Sprague Dawley), the highest concentration (Cmax) came to 1500 nM, the Tmax was found to be 8 h and the bioavailability came to 62%.

For `CCCCCCCCCCCCCCCC(=O)N[C@@H](CCC(=O)N[C@@H](CCC(=O)N[C@@H](CCC(=O)NCCCC[C@H](NC(=O)CCOCCOCCOCCOCCOCCOCCOCCOCCOCCOCCOCCOCCNC(=O)[C@H](CCCCNC(C)=O)NC(=O)[C@H](CCCCN)NC(=O)[C@H](CCCNC(=N)N)NC(=O)C(C)(C)NC(=O)[C@H](CO)NC(=O)[C@H](Cc1c[nH]c2ccccc12)NC(=O)[C@@H](NC(=O)[C@H](CO)NC(=O)[C@H](CCCC)NC(=O)CNC(=O)[C@H](CCC(=O)O)NC(=O)C(C)(C)NC(=O)C(C)(C)NC(=O)[C@@H](NC(=O)[C@H](CCCCNC(C)=O)NC(=O)[C@H](C)NC(=O)[C@H](CCCNC(=N)N)NC(=O)[C@@H](NC(=O)[C@H](CCCCN)NC(=O)[C@H](CCC(=O)O)NC(=O)[C@H](CCCNC(=N)N)NC(=O)CNC(=O)[C@H](CCC(=O)O)NC(=O)[C@H](CC(C)C)NC(C)=O)C(C)C)[C@@H](C)CC)[C@@H](C)O)C(N)=O)C(=O)O)C(=O)O)C(=O)O` [compound 26] (Ac-LEGREKVRAK(Ac)I[Aib][Aib]EG[Nle]STWS[Aib]RKK(Ac)[PEG12]K([γGlu-γGlu-γGlu-Palmitoyl])-NH2), on RXFP1, the EC50 came to 0.57 nM and the Emax amounted to 85%. The C0 in data set [1] (setting [2]) was 2330 nM. Moreover, in data set [1] (setting [3]), the half-life was 5.8 h. For the same compound, in data set [1] (Sprague Dawley), the peak level (Cmax) was 770 nM, the Tmax was found to be 8 h and the bioavailability turned out to be 72%.

Turning to `CCCCCCCCCCCCCCCC(=O)N[C@@H](CCC(=O)N[C@@H](CCC(=O)N[C@@H](CCC(=O)N[C@@H](CCC(=O)NCCCC[C@H](NC(=O)COCCOCCNC(=O)COCCOCCNC(=O)COCCOCCNC(=O)[C@H](CCCCNC(C)=O)NC(=O)[C@H](CCCCN)NC(=O)[C@H](CCCNC(=N)N)NC(=O)[C@](C)(CCCCN)NC(=O)[C@H](CO)NC(=O)[C@](C)(Cc1c[nH]c2ccccc12)NC(=O)[C@@H](NC(=O)[C@H](CO)NC(=O)[C@H](CCCC)NC(=O)CNC(=O)[C@H](CCC(=O)O)NC(=O)C(C)(C)NC(=O)C(C)(C)NC(=O)[C@@H](NC(=O)[C@H](CCCCNC(C)=O)NC(=O)[C@H](C)NC(=O)[C@H](CCCNC(=N)N)NC(=O)[C@@H](NC(=O)[C@H](CCCCN)NC(=O)[C@H](CCC(=O)O)NC(=O)[C@H](CCCNC(=N)N)NC(=O)CNC(=O)[C@H](CCC(=O)O)NC(=O)[C@H](CC(C)C)NC(C)=O)C(C)C)[C@@H](C)CC)[C@@H](C)O)C(N)=O)C(=O)O)C(=O)O)C(=O)O)C(=O)O` [compound 125] (Ac-LEGREKVRAK(Ac)I[Aib][Aib]EG[Nle]ST[αMeW]S[αMeK]RKK(Ac)[AEEA][AEEA][AEEA]K([γGlu-γGlu-γGlu-γGlu-Palmitoyl])-NH2), at RXFP1, the EC50 came out at 0.1 nM and the Emax is 89%.

With `CCCCCCCCCCCCCCCCCC(=O)N[C@@H](CCC(=O)N[C@@H](CCC(=O)N[C@@H](CCC(=O)NCCCC[C@H](NC(=O)CCOCCOCCOCCOCCOCCOCCOCCOCCOCCOCCOCCOCCOCCOCCOCCOCCOCCOCCOCCOCCOCCOCCOCCOCCOCCOCCOCCOCCNC(=O)[C@H](CCCCN)NC(=O)[C@H](CCCCN)NC(=O)[C@H](CCCNC(=N)N)NC(=O)C(C)(C)NC(=O)[C@H](CO)NC(=O)[C@H](Cc1c[nH]c2ccccc12)NC(=O)[C@@H](NC(=O)[C@H](CO)NC(=O)[C@H](CCCC)NC(=O)CNC(=O)[C@H](CCC(=O)O)NC(=O)C(C)(C)NC(=O)C(C)(C)NC(=O)[C@@H](NC(=O)[C@H](CCCCNC(C)=O)NC(=O)[C@H](C)NC(=O)[C@H](CCCNC(=N)N)NC(=O)[C@@H](NC(=O)[C@H](CCCCN)NC(=O)[C@H](CCC(=O)O)NC(=O)[C@H](CCCNC(=N)N)NC(=O)CNC(=O)[C@H](CCC(=O)O)NC(=O)[C@H](CC(C)C)NC(C)=O)C(C)C)[C@@H](C)CC)[C@@H](C)O)C(N)=O)C(=O)O)C(=O)O)C(=O)O` [compound 48] (Ac-LEGREKVRAK(Ac)I[Aib][Aib]EG[Nle]STWS[Aib]RKK[PEG28]K([γGlu-γGlu-γGlu-Stearoyl])-NH2), the maximum response (Emax) at RXFP1 turned out to be 99%.
